Source: patent publication US9205091B2, “Diazeniumdiolated compounds, pharmaceutical compositions, and method of treating cancer” (The United States of America, as represented by the …, priority 2009, dated 2015)

Legend:
[1] = system: H1944 cells; test: H1944 xenograft in athymic NCr-nu/nu mice, JS-K (Example 3); format: in vivo; conditions: 6 μmol/kg i.v., three times a week for three weeks
Procedure: (§1) H1944 or H1703 cells are injected at 5×10^6 s.c. into a flank of 7-week-old female athymic NCr-nu/nu mice (Charles River, Wilmington, Mass.). The drug injections are initiated when the tumors reached 2×2×2 mm (typically 3-4 weeks). JS-K is formulated in Pluronic P123 (P123) (BASF, Florham Park, N.J.) micelles. Animals are treated three times a week for three weeks with i.v. tail vein injections of either vehicle (2.25% P123 in PBS) or JS-K (6 μmol/kg in the vehicle). Tumors are measured using a caliper twice a week, and the tumor volumes are calculated using a formula for ellipsoid volume, π/6×L×W×H (Tomayko and Reynolds, 1989). The non-parametric Mann-Whitney test is utilized for statistical comparisons of tumor volumes at each time point. Body weights are taken before each drug injection. Animals are sacrificed 2 h after the last drug injection. Blood is collected by cardiac puncture under isoflurane anesthesia, for testing for cytokines. Cytokines in serum are measured using a mouse Th1/2 multiplex assay (Meso Scale Discovery, Gaithersburg, Md.), according to the manufacturer's protocol. There were 9-13 mice/group at termination.

[2] = system: H1944 cells; test: Intracellular ROS/RNS, CM-H2DCF-DA (DCF fluorescence); format: cell-based, human; conditions: up to 60 min
Procedure: (§2) Intracellular level of reactive oxygen/nitrogen species is quantified by the oxidation of the ROS/RNS-sensitive fluorophore 5-(and-6)-chloromethyl-2′,7′-dichlorodihydrofluorescein diacetate (CM-H2DCF-DA) (Invitrogen, Carlsbad, Calif.). Cells growing on 6-well plates (6×10^5/well) are loaded with 5 μM CM-H2DCF-DA in Hanks' balanced salt solution (HBSS) at 37° C. and 5% CO2. After 30 min of incubation, HBSS containing the probe is removed, cells are rinsed with HBSS and 3 mL of fresh HBSS is added to each well followed by addition of JS-K or DMSO as a control. After 30 min or 60 min the cells are collected by scraping in HBSS and 2′,7′-dichlorofluorescein (DCF) fluorescence is measured using a Perkin Elmer LS50B luminescence spectrometer with the excitation source at 488 nm and emission at 530 nm.

[3] = system: H1703 cells; test: as above; format: cell-based, human; conditions: up to 60 min
Procedure: as §2

[4] = system: H1944 cells; test: Intracellular nitric oxide, DAF-FM diacetate; format: cell-based, human; conditions: 1 μM, up to 60 min
Procedure: (§3) Cells growing on 6-well plates are loaded with 2.5 μM DAF-FM diacetate in HBSS at 37° C. and 5% CO2. After 30 min of incubation the cells are rinsed with HBSS to remove excess probe, and JS-K in fresh HBSS is added to the cells at 1 μM final concentration. After 30 or 60 min incubation the fluorescence of the benzotriazole derivative formed on DAF-FM's reaction with aerobic NO is analyzed using a Perkin Elmer LS50B luminescence spectrometer with the excitation source at 495 nm and emission at 515 nm. All experiments are performed at least three times, each time in triplicate.

[5] = system: H1703 cells; test: Intracellular nitric oxide, DAF-FM diacetate; format: cell-based, human; conditions: 1 μM, up to 60 min
Procedure: as §3

[6] = system: mitochondrial superoxide; test: Mitochondrial superoxide level, MitoSOX; format: cell-based, human
Procedure: Mitochondrial superoxide level is measured using MitoSOX fluorescent dye (Invitrogen, Carlsbad, Calif.), according to the manufacturer's protocol. Rotenone (10 μM) is used as a positive control.

[7] = Body weight of xenograft mice, JS-K (Example 3); format: in vivo; conditions: 6 μmol/kg i.v., three times a week for three weeks
Procedure: as §1

[8] = system: H1703 cells; test: H1703 xenograft in athymic NCr-nu/nu mice, JS-K (Example 3); format: in vivo; conditions: 6 μmol/kg i.v., three times a week for three weeks
Procedure: as §1

[9] = system: H441; test: CellTiter 96 MTT cell proliferation assay (Example 9); format: cell-based, human
Procedure: (§4) Cell lines derived from human non-small cell lung cancers are obtained from American Type Culture Collection (ATCC, Manassas, Va.), and are designated by their NCI numbers. Cells are maintained in RPMI 1640 medium (Gibco, Invitrogen, Carlsbad, Calif.), supplemented with 10% fetal calf serum (Gemini Bio-Products, Sacramento, Calif.), 100 U/mL penicillin/streptomycin, and 2 mM glutamine at 37° C. and 5% CO2.
(§5) For proliferation assays cells are seeded at 2×10^4/well in 96-well plates, allowed to adhere for 24 hrs, and then are treated with the drug or DMSO as a control for 48 hours. […] Compounds are prepared as 10 mM stock solution in dimethyl sulfoxide (Sigma, St. Louis, Mo.). Increasing drug concentrations in 10 μL of phosphate-buffered saline (PBS) are added to 100 μL of the culture medium and incubated at 37° C. for 72 h. The CellTiter 96 non-radioactive cell proliferation assay (MTT assay, Promega, Madison, Wis.), is performed according to the manufacturer's protocol. Each compound concentration is represented in six repeats, and the screening is performed as at least two independent experiments. IC50 values are calculated using Sigma Plot software (Systat Software).

[10] = system: H1944; test: as above; format: cell-based, human
Procedure: as §4, §5

[11] = system: H1373; test: as above; format: cell-based, human
Procedure: as §4, §5

[12] = system: H2122; test: as above; format: cell-based, human
Procedure: as §4, §5

[13] = system: H1703; test: as above; format: cell-based, human
Procedure: as §4, §5

[14] = system: H1703 cells; test: H1703 xenograft in athymic NCr-nu/nu mice, tumor weights (Example 10); format: in vivo; conditions: 6 micromols/kg i.v., three times a week for three weeks
Procedure: H1703 cells are harvested at 80% confluence, washed with PBS, and suspended in PBS. The cells are injected at 5×10^6 s.c. into a flank of 7-week-old female athymic NCr-nu/nu mice (Charles River). […] Animals are treated three times a week for three weeks with i.v. tail vein injections of either vehicle (2.25% P-123 in PBS) or 1 or 2 (6 micromols/kg in the vehicle) or 6 (8 micromols/kg). Body weights are taken before each drug injection. Animals are sacrificed two hours after the last drug injection and the tumors are excised and weighed. There are 13-15 mice/group at termination. The non-parametric Mann-Whitney test is utilized for statistical comparisons of tumor weights.

## CCOC(=O)N1CCN(/[N+]([O-])=N/Oc2ccc([N+](=O)[O-])cc2[N+](=O)[O-])CC1 [Compound 1]
[1]
  growth of xenografted tumor cells vs vehicle: significantly reduces growth
[2]
  DCF-reactive material: not
[3]
  DCF-reactive material: increase
[4]
  intracellular NO: increase
[5]
  intracellular NO: increase
[6]
  mitochondrial superoxide generation: increase
[7]
  effect on body weight: did not affect body weight
[8]
  growth of xenografted tumor cells vs vehicle: significantly reduces growth
[9]
  IC50: 0.94 µM
[10]
  IC50: > 10 µM
[11]
  IC50: 0.86 µM
[12]
  IC50: 3.17 µM
[13]
  IC50: 0.57 µM
[14]
  growth of H1703 human NSCLC cells in vivo vs vehicle: significantly reduced growth
[14]; vs vehicle
  reduction of the tumor weights: 49%
